# Reference: the supplement of paper PMC10307832
# Experiments:
# Assay in all cases: relative viability (nuclei count vs DMSO), 5 days (fraction); higher = more cells survive
# BAY61-3606 + Luminespib = compound: COC1=C(C=C(C=C1)C2=CC3=NC=CN3C(=N2)NC4=C(C=CC=N4)C(=O)N)OC [BAY61-3606] + CCNC(=O)c1noc(-c2cc(C(C)C)c(O)cc2O)c1-c1ccc(CN2CCOCC2)cc1 [Luminespib] (partner 0.01 µM)
# Procedure, shortened: (§1)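 A single step with final 0.05% Triton X-100, 1% formaldehyde and 1 ug/ml Hoechst fixed the cells and stained nuclei 5 days after treatment. Lung cancer cell lines in 1536-well plates had been treated by pin tool the day after seeding with one drug alone or a fixed anchor-drug dose plus five library-drug doses (not always all listed) in √10 steps, and nuclei were counted on 4× images. Relative viability is the ratio of nuclei in treated wells to nuclei in vehicle wells, taken as the median of duplicate plates.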
# Doxorubicin + AZD7762 = compound: COc1cccc2c1C(=O)c1c(O)c3c(c(O)c1C2=O)C[C@@](O)(C(=O)CO)C[C@@H]3O[C@H]1C[C@H](N)[C@H](O)[C@H](C)O1 [Doxorubicin] + NC(=O)Nc1cc(-c2cccc(F)c2)sc1C(=O)N[C@H]1CCCNC1 [AZD7762] (partner 0.2 µM)
# Procedure, shortened: as §1
# BAY61-3606 + Olaparib = compound: COC1=C(C=C(C=C1)C2=CC3=NC=CN3C(=N2)NC4=C(C=CC=N4)C(=O)N)OC [BAY61-3606] + O=C(c1cc(Cc2n[nH]c(=O)c3ccccc23)ccc1F)N1CCN(C(=O)C2CC2)CC1 [Olaparib] (partner 8 µM)
# Procedure, shortened: as §1
# Doxorubicin + Pictilisib = compound: COc1cccc2c1C(=O)c1c(O)c3c(c(O)c1C2=O)C[C@@](O)(C(=O)CO)C[C@@H]3O[C@H]1C[C@H](N)[C@H](O)[C@H](C)O1 [Doxorubicin] + CS(=O)(=O)N1CCN(Cc2cc3nc(-c4cccc5[nH]ncc45)nc(N4CCOCC4)c3s2)CC1 [Pictilisib] (partner 1 µM)
# Procedure, shortened: as §1
Cell Line,relative viability (BAY61-3606 + Luminespib; first compound 0.02 µM),relative viability (BAY61-3606 + Luminespib; first compound 0.06325 µM),relative viability (BAY61-3606 + Luminespib; first compound 0.2 µM),relative viability (BAY61-3606 + Luminespib; first compound 0.6325 µM),relative viability (BAY61-3606 + Luminespib; first compound 2 µM),relative viability (Doxorubicin + AZD7762; first compound 0.001 µM),relative viability (Doxorubicin + AZD7762; first compound 0.003162 µM),relative viability (Doxorubicin + AZD7762; first compound 0.01 µM),relative viability (Doxorubicin + AZD7762; first compound 0.03162 µM),relative viability (Doxorubicin + AZD7762; first compound 0.1 µM),relative viability (BAY61-3606 + Olaparib; first compound 0.02 µM),relative viability (BAY61-3606 + Olaparib; first compound 0.06325 µM),relative viability (BAY61-3606 + Olaparib; first compound 0.2 µM),relative viability (BAY61-3606 + Olaparib; first compound 0.6325 µM),relative viability (BAY61-3606 + Olaparib; first compound 2 µM),relative viability (Doxorubicin + Pictilisib; first compound 0.001 µM),relative viability (Doxorubicin + Pictilisib; first compound 0.003162 µM),relative viability (Doxorubicin + Pictilisib; first compound 0.01 µM),relative viability (Doxorubicin + Pictilisib; first compound 0.03162 µM),relative viability (Doxorubicin + Pictilisib; first compound 0.1 µM)
LK-2,0.168,0.163,0.185,0.185,0.208,0.354,0.578,0.274,0.341,0.251,0.694,0.598,0.731,0.846,0.736,0.498,0.457,0.534,0.498,0.442
HCC-44,1.1,,1.17,1.24,0.997,0.938,1.02,1.01,1.04,0.993,0.955,0.974,0.979,0.901,0.958,0.722,0.66,0.58,0.531,0.527
BEN,0.464,0.349,0.253,0.321,0.407,0.96,0.65,0.82,0.562,0.624,1.2,0.865,1.16,1.29,0.972,0.7,0.509,0.546,0.472,0.493
NCI-H2405,0.736,0.569,0.716,0.739,0.485,0.785,0.802,0.801,0.682,0.381,0.941,0.89,0.845,0.907,0.695,,0.432,0.507,0.356,0.276
NCI-H1395,0.849,0.595,0.733,0.568,0.546,0.414,0.435,0.421,0.347,0.377,0.485,0.426,0.467,0.492,0.438,0.682,0.623,0.648,0.628,0.421
201T,1.11,1.03,1.04,1.16,1.05,0.626,0.756,0.642,0.556,0.577,0.833,0.842,0.865,0.838,0.824,0.666,0.648,0.658,0.719,0.68
NCI-H358,0.428,0.249,0.322,0.289,0.205,0.548,0.542,0.597,0.367,0.258,0.654,0.601,0.751,0.573,0.449,0.441,0.349,0.273,0.175,0.181
NCI-H650,0.925,0.751,0.766,0.927,0.652,0.949,0.921,0.948,0.89,0.718,0.365,0.371,0.382,0.395,0.32,0.989,0.886,0.867,0.734,0.711
PC-3 [JPC-3],,0.81,0.746,0.659,0.709,0.901,0.927,0.96,0.762,0.585,1.25,1.16,1.17,1.17,1.06,0.774,0.842,0.758,0.713,0.702
HCC-15,0.412,0.302,0.303,0.263,0.377,1.21,1.18,1.05,1.03,1.35,0.668,0.685,0.729,0.719,0.655,0.663,0.759,0.614,0.467,0.478
ABC-1,0.985,0.549,0.529,0.81,0.338,0.443,0.937,,0.655,0.6,0.908,0.686,0.76,0.494,0.711,0.849,0.642,0.566,0.317,0.356
LCLC-97TM1,0.793,0.875,0.879,0.794,0.765,0.235,0.218,0.303,0.244,0.211,0.498,0.365,0.462,0.336,0.389,0.145,0.24,0.225,0.158,0.187
NCI-H647,0.205,0.16,0.21,0.221,0.0962,0.352,0.417,0.466,0.19,0.0766,0.729,0.743,0.574,0.432,0.237,,0.38,0.46,0.279,0.1
EPLC-272H,0.33,0.424,0.801,0.131,0.138,0.337,0.182,0.164,0.221,0.241,0.962,0.722,0.706,0.709,0.323,0.308,0.288,0.354,0.33,0.336
